According to the supplement of paper PMC10307832:

How the values were obtained:
Assay in all cases: relative viability (nuclei count vs DMSO), 5 days (fraction); higher = more cells survive
Crenolanib + Decitabine = compound: CC1(COc2ccc3c(c2)ncn3-c2ccc3cccc(N4CCC(N)CC4)c3n2)COC1 [Crenolanib] + Nc1ncn([C@H]2C[C@H](O)[C@@H](CO)O2)c(=O)n1 [Decitabine] (partner 2 µM)
How it was run: (§1)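 Lung cancer cell lines in 1536-well plates were dosed by pin tool the day after seeding, either with one drug alone or with a fixed anchor-drug dose plus five library-drug doses (not always all listed) in √10 steps. After 5 days, cells were fixed and their nuclei stained in one step (final 0.05% Triton X-100, 1% formaldehyde, 1 ug/ml Hoechst), then counted on 4× images. Relative viability is the nuclei count in treated wells divided by that in vehicle wells. Values are medians of duplicate plates.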

Crenolanib + Trametinib = compound: CC1(COc2ccc3c(c2)ncn3-c2ccc3cccc(N4CCC(N)CC4)c3n2)COC1 [Crenolanib] + CC(=O)Nc1cccc(-n2c(=O)n(C3CC3)c(=O)c3c(Nc4ccc(I)cc4F)n(C)c(=O)c(C)c32)c1 [Trametinib] (partner 0.02 µM)
How it was run: as §1

Crenolanib + Phenformin = compound: CC1(COc2ccc3c(c2)ncn3-c2ccc3cccc(N4CCC(N)CC4)c3n2)COC1 [Crenolanib] + N=C(N)NC(=N)NCCc1ccccc1 [Phenformin] (partner 250 µM)
How it was run: as §1

Tivantinib + Navitoclax = compound: O=C1NC(=O)[C@@H](c2cn3c4c(cccc24)CCC3)[C@@H]1c1c[nH]c2ccccc12 [Tivantinib] + CC1(C)CCC(c2ccc(Cl)cc2)=C(CN2CCN(c3ccc(C(=O)NS(=O)(=O)c4ccc(N[C@H](CCN5CCOCC5)CSc5ccccc5)c(S(=O)(=O)C(F)(F)F)c4)cc3)CC2)C1 [Navitoclax] (partner 0.5 µM)
How it was run: as §1

Cell Line	relative viability (Crenolanib + Decitabine; first compound 0.01 µM)	relative viability (Crenolanib + Decitabine; first compound 0.03162 µM)	relative viability (Crenolanib + Decitabine; first compound 0.1 µM)	relative viability (Crenolanib + Decitabine; first compound 0.3162 µM)	relative viability (Crenolanib + Decitabine; first compound 1 µM)	relative viability (Crenolanib + Trametinib; first compound 0.01 µM)	relative viability (Crenolanib + Trametinib; first compound 0.03162 µM)	relative viability (Crenolanib + Trametinib; first compound 0.1 µM)	relative viability (Crenolanib + Trametinib; first compound 0.3162 µM)	relative viability (Crenolanib + Trametinib; first compound 1 µM)	relative viability (Crenolanib + Phenformin; first compound 0.01 µM)	relative viability (Crenolanib + Phenformin; first compound 0.03162 µM)	relative viability (Crenolanib + Phenformin; first compound 0.1 µM)	relative viability (Crenolanib + Phenformin; first compound 0.3162 µM)	relative viability (Crenolanib + Phenformin; first compound 1 µM)	relative viability (Tivantinib + Navitoclax; first compound 0.01 µM)	relative viability (Tivantinib + Navitoclax; first compound 0.03162 µM)	relative viability (Tivantinib + Navitoclax; first compound 0.1 µM)	relative viability (Tivantinib + Navitoclax; first compound 0.3162 µM)
COR-L23	0.326	0.473	0.431	0.487	0.413	0.58	0.53	0.418	0.606	0.552	0.444	0.417	0.47	0.427	0.397	1.18	1.09	0.998	1.19
COR-L 105	0.684	0.669	0.698	0.682	0.675	0.442	0.407	0.491	0.416	0.547	0.625	0.474	0.497	0.5	0.547	0.856	0.867	0.748	0.626
LK-2	0.304	0.203	0.285	0.337	0.309	0.987	0.747	0.859	0.899	0.727	0.472	0.446	0.411	0.314	0.317	0.913	–	0.705	0.83
201T	0.863	0.839	0.822	0.884	0.843	0.703	0.703	0.688	0.722	0.745	0.438	0.446	0.438	0.446	0.435	1.12	1.17	1.17	1.18
HCC-78	0.673	0.634	0.734	0.838	0.652	0.826	0.862	0.682	0.756	0.657	0.783	0.604	–	0.791	0.555	0.853	0.683	0.8	0.3
NCI-H647	0.376	0.401	0.362	0.502	0.346	0.55	0.442	0.486	0.653	0.538	0.546	0.612	0.551	0.463	0.481	1.06	1.27	1.07	0.758
HARA	0.67	0.543	0.447	0.586	0.569	0.795	0.955	0.774	0.723	0.628	0.471	0.464	0.398	0.391	0.488	1.14	1.13	1.12	1.14
NCI-H2085	–	0.538	0.517	0.546	0.534	–	0.571	0.549	0.51	0.554	0.742	0.745	0.63	0.7	0.631	1.18	1.28	1.2	0.939
NCI-H2347	0.657	0.611	0.605	0.674	0.6	0.283	0.286	0.282	0.255	0.293	0.381	–	–	0.546	0.469	0.868	0.718	0.678	0.755
